The test system of assay [1] is Renin AAV Uni-nephrectomized db/db (Renin AAV UNx) mice. The assay is described as follows: Renin AAV uni-nephrectomized db/db mouse model of diabetic nephropathy, 77 days treatment. Format: in vivo. The protocol: 56 female mice (BKS.Cg-Dock7m+/+ Lepradb/db BLKS, 5 weeks of age) were transferred to the Gubra Research animal unit. The animals were group housed until uni-nephrectomies, then single housed. Throughout the habituation and study period the animals were in a light-, temperature- and humidity-controlled room with free access to food and water. All animal experiments were conducted in accordance with Gubra bioethical guidelines, which are fully compliant to internationally accepted principles for the care and use of laboratory animals.
Animals were terminated on day 77; blood was taken for later analysis, body weight was recorded, and spot urine was collected.
SER140 was provided by Phlogo ApS, Copenhagen, Denmark (10 mg/ml miliQ water diluted to the different dose formulations). SER140 is a dendrimer composed of four monomeric peptides each with the sequence SGRKSSKMQA (SEQ ID NO:1), and coupled to a lysine backbone. Vehicle was miliQ:PBS 1:5.
After one week of acclimatization the mice received an IV injection of Renin adenosin-associated virus (AAV). […]
All blood samples were taken from the mice tail in heparinized tubes, plasma was separated and stored at minus 80 C until analysis. Non-fasting BG (blood glucose) was measured using BIOSEN c-line glucose meter (EKF-diagnostics, Germany), blood for HbA1c analysis was immediately suspended in Hemolyzing Reagent and stored until analysis using autoanalyzer Cobas C-111 with commercial kit (Roche Diagnostics, Germany), plasma urea using commercial kits (Roche Diagnostics).
Urine samples were stored at minus 80 C until analysis. Urine for measurement of albumin and creatinine were centrifuged at 2000 g for 2 min prior to analysis Urine albumin was measure using a commercial ELISA kit (Bethyl Laboratories, Inc.), according to the manufacturer's instructions, and urine creatinine was measured using a commercial kit (Roche Diagnostics) on the Cobas c 501 autoanalyzer, according to the manufacturer's instructions. Urinary KIM-1 was measured using a commercial ELISA kit (R&D Systems), according to the manufacturer's instructions.

For another assay, the target named is T1, IL-1R1 (Homo sapiens, UniProt P14778).
T1 sequence (P14778 18-569): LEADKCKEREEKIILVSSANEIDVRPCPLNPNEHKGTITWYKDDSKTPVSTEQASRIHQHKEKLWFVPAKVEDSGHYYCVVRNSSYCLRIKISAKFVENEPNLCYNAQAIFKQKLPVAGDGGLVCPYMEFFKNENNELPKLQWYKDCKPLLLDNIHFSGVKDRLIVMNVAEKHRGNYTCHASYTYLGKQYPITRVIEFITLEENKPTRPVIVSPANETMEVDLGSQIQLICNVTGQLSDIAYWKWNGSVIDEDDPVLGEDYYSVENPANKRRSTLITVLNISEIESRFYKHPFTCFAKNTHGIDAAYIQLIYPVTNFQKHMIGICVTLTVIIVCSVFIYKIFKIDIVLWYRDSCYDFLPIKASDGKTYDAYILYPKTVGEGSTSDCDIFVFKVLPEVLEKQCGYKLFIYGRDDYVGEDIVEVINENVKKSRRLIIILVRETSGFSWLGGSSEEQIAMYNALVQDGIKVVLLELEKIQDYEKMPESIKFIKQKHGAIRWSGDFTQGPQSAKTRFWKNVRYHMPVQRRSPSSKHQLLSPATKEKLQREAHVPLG
The conditions noted are these: cited from earlier work.

For the next assay, the system named is macrophages. The conditions noted are these: downstream of IL-1 receptor activation; cited from earlier work.

“Also recorded” adds a separate entry of the source. Ends that are not written are not given here.

Regarding “SER140: dendrimer composed of four monomeric peptides each with the sequence SGRKSSKMQA (SEQ ID NO:1), coupled to a lysine backbone (also: tetrameric dendrimer: four copies coupled to a lysine backbone)”, the “urinary albumin corrected for creatinine (ACR)” value in assay [1] (spot urine, day 77, 3, 10 and 20 mg/kg SER140 subcutaneously once daily vs vehicle, FIG. 1 (medians)) is listed as “decreased; also recorded: significantly reduced”. Moreover, in assay [1] (spot urine, day 77, 3, 10 and 20 mg/kg SER140 subcutaneously once daily vs vehicle, FIG. 2 (means)), the “urinary KIM-1 corrected for creatinine (KIM-1/CR)” value is given as “decreased; also recorded: significantly reduced”. Moreover, the HbA1c entry in assay [1] (vehicle vs SER140 treatment) is “no changes”. Also, the “receptor binding of IL-1p” value with IL-1R1 is “inhibit”. In the assay on macrophages, the “macrophages liberation / secretion of TNFα” value is listed as “reduce”.

As to “SGRKSSKMQA (Variant of fragment of IL1RA) [SEQ ID NO:1, 10-amino acid peptide derived from IL1RA]”, in the assay with macrophages, the “macrophages liberation / secretion of TNFα” value is recorded as “inhibit”.
